Experimental data from US11459324B2, “O-glycoprotein-2-acetamido-2-deoxy-3-D-glycopyranosidase inhibitors” (BIOGEN MA INC., priority 2018, dated 2022).

Target: T1, Recombinant full length human OGA enzyme (Homo sapiens, UniProt O60502)
T1 construct: Recombinant full length human OGA enzyme was purchased from Origene; purchased Origene
T1 sequence (O60502 1-916): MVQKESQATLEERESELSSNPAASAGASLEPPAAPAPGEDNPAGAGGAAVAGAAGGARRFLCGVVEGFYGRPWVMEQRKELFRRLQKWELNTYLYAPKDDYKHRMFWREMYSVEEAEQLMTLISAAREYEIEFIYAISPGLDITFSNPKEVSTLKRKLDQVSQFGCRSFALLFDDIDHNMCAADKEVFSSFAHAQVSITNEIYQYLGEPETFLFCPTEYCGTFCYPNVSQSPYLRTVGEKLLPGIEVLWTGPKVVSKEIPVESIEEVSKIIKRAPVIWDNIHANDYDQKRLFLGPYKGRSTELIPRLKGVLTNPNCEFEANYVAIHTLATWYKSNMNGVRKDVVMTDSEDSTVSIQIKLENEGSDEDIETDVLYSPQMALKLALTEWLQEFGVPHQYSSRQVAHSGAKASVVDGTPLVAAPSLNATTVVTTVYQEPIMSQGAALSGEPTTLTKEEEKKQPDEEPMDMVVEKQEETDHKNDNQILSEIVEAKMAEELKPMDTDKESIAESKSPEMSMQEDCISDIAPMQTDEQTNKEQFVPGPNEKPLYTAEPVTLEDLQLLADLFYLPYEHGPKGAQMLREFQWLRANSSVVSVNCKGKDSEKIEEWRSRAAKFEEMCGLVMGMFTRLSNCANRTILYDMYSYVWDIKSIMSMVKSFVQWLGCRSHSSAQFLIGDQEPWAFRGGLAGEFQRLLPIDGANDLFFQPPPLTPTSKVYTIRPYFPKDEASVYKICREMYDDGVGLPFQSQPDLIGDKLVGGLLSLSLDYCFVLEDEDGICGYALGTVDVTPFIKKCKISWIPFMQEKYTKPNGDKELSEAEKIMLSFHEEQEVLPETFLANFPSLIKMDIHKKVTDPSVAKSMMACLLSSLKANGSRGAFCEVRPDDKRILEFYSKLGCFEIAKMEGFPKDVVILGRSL
Test: OGA Enzyme Inhibition Biochemical Assay
Details: 1 nM OGA, 100 μM 4-MUGlcNAc (Km), pH 6.4, 90 minutes at room temperature, 10-point dose-response from 20 μM
Description: OGA Enzyme Inhibition Biochemical Assay
Recombinant full length human OGA enzyme was purchased from Origene. 4-MUGlCNAc substrate was purchased from Sigma. All other reagents were purchased from Sigma or Fisher. Assay buffer consists of the McIlvaine buffer system, pH 6.4 (0.2M Na2HPO4 mixed with 0.1M citric acid) and 0.01% BSA. Reactions consist of 1 nM OGA, 100 μM 4-MUGlcNAc (Km), and compound in a final volume of 10 μl. Reactions were incubated for 90 minutes at room temperature and quenched with 40 μl of 3M glycine, pH 10 and read on a Perkin Elmer Envision plate reader (Ex: 355 nm/Em: 460 nm). Compounds were tested with a 10-point dose-response starting from 20 μM with a 4-fold dilution. Data was fit using GraphPad Prism using a 4-parameter fit with variable slope.

Structure (SMILES) | IC50
COc1nc(C[C@H]2CCCN(Cc3cnc(NC(C)=O)s3)C2)nc(C)c1F [Example 3-8, (R)-N-(5-((3-((5-fluoro-4-methoxy-6-methylpyrimidin-2-yl)methyl)piperidin-1-yl)methyl)thiazol-2-yl)acetamide] | 1 nM
CC(=O)Nc1ncc(CN2CC(Cc3ncc(F)cn3)CC[C@@H]2C(F)(F)F)s1 (stereo partly shown) [Example 2-50] | 270 nM
CCC(=O)Nc1nc(F)c(CN2CC[C@H](Cc3ncc(F)cn3)C2)s1 [Example 3-27, (R)-N-(4-fluoro-5-((3-((5-fluoropyrimidin-2-yl)methyl)pyrrolidin-1-yl)methyl)thiazol-2-yl)propionamide] | 34 nM
CC(=O)Nc1ncc(CN2CCCC(Cn3cc(Br)cn3)C2)s1 (stereo not shown) [Example 4-9, N-(5-((3-((4-bromo-1H-pyrazol-1-yl)methyl)piperidin-1-yl)methyl)thiazol-2-yl)acetamide] | 310 nM
CC(=O)Nc1ncc(CN2C[C@@H](Cc3ncc(F)cn3)C[C@@H]2C)s1 (single isomer, unassigned) [Example 2-21] | 108 nM
CC(=O)Nc1ncc(CN2CC[C@H](Cc3ncc(C)cn3)C2)s1 [Example 3-13, (R)-N-(5-((3-((5-methylpyrimidin-2-yl)methyl)pyrrolidin-1-yl)methyl)thiazol-2-yl)acetamide] | 14 nM
CC(=O)Nc1nc(F)c(CN2CC[C@H](Cc3cc(C)nc(C)n3)C2)s1 [Example 3-29, (R)-N-(5-((3-((2,6-dimethylpyrimidin-4-yl)methyl)pyrrolidin-1-yl)methyl)-4-fluorothiazol-2-yl)acetamide] | 10 nM
CC(=O)Nc1nnc(CN2CCC[C@H](Cc3ncc(F)cn3)C2)s1 (stereo in doubt) [Example 3-14, N-(5-((3-((5-fluoropyrimidin-2-yl)methyl)piperidin-1-yl)methyl)-1,3,4-thiadiazol-2-yl)acetamide] | 12 nM
CC(=O)N(C)c1nc(F)c(CN2CC[C@H](Cc3ncc(F)cn3)C2)s1 [Example 3-37, (R)-N-(4-fluoro-5-((3-((5-fluoropyrimidin-2-yl)methyl)pyrrolidin-1-yl)methyl)thiazol-2-yl)-N-methylacetamide] | 79 nM
COc1cccc(CC2CCN(Cc3cnc(NC(C)=O)s3)C2)n1 (stereo not shown) [Example 1-18, N-(5-((3-((6-methoxypyridin-2-yl)methyl)pyrrolidin-1-yl)methyl)thiazol-2-yl)acetamide] | 17 nM
COc1cncc(CC2CCCN(Cc3cnc(NC(C)=O)s3)C2)c1 (stereo not shown) [Example 1-8, N-(5-((3-((5-methoxypyridin-3-yl)methyl)piperidin-1-yl)methyl)thiazol-2-yl)acetamide] | 29 nM
CC(=O)Nc1ncc(CN2CCC(Cc3cncc(F)c3)C2)s1 (stereo not shown) [Example 1-24, N-(5-((3-((5-fluoropyridin-3-yl)methyl)pyrrolidin-1-yl)methyl)thiazol-2-yl)acetamide] | 31 nM
COc1cc(C[C@H]2CCCN(Cc3cnc(NC(C)=O)s3)C2)ncn1 [Example 3-23, (R)-N-(5-((3-((6-methoxypyrimidin-4-yl)methyl)piperidin-1-yl)methyl)thiazol-2-yl)acetamide] | 1.3 nM
CC(=O)Nc1nc(F)c(CN2CCC[C@H](Cc3ccc(C)nc3)C2)s1 [Example 3-20, (R)-N-(4-fluoro-5-((3-((6-methylpyridin-3-yl)methyl)piperidin-1-yl)methyl)thiazol-2-yl)acetamide] | < 1 nM
CC(=O)Nc1nc(F)c(CN2CC[C@H](Cc3ncc(F)cn3)C2)s1 [Example 3-26, (R)-N-(4-fluoro-5-((3-((5-fluoropyrimidin-2-yl)methyl)pyrrolidin-1-yl)methyl)thiazol-2-yl)acetamide] | 6.2 nM
CC(=O)Nc1ncc(CN2CCCC(C)(Cc3ncc(F)cn3)C2)s1 (stereo not shown) [Example 2-34, N-(5-((3-((5-fluoropyrimidin-2-yl)methyl)-3-methylpiperidin-1-yl)methyl)thiazol-2-yl)acetamide] | 450 nM

Structure (SMILES) | IC50
CC(=O)Nc1nc(F)c(CN2C[C@H](Cc3noc(C)n3)C[C@@H]2C)s1 (single isomer, unassigned) [Example 4-12 Peak 2] | < 1 nM
COc1cc(CC2CCN(Cc3cnc(NC(C)=O)s3)C2)ccn1 (stereo not shown) [Example 1-19, N-(5-((3-((2-methoxypyridin-4-yl)methyl)pyrrolidin-1-yl)methyl)thiazol-2-yl)acetamide] | 10 nM
CCC(=O)Nc1nc(F)c(CN2CCC[C@H](Cc3cc(OC)ncn3)C2)s1 [Example 3-49, (R)-N-(4-fluoro-5-((3-((6-methoxypyrimidin-4-yl)methyl)piperidin-1-yl)methyl)thiazol-2-yl)propionamide] | 2.2 nM
CC(=O)Nc1ncc(CN2CCC(Cc3ccccn3)C2)s1 (stereo not shown) [Example 2-15, N-(5-((3-(pyridin-2-ylmethyl)pyrrolidin-1-yl)methyl)thiazol-2-yl)acetamide] | 84 nM
CC(=O)Nc1ncc(CN2CCCC(Cc3ccc(F)cn3)C2)s1 (stereo not shown) [Example 2-5, N-(5-((3-((5-fluoropyridin-2-yl)methyl)piperidin-1-yl)methyl)thiazol-2-yl)acetamide] | 23 nM
CC(=O)Nc1ncc(CN2CCCC(Cc3ncc(F)cn3)C2C)s1 (stereo not shown) [Example 2-41, N-(5-((3-((5-fluoropyrimidin-2-yl)methyl)-2-methylpiperidin-1-yl)methyl)thiazol-2-yl)acetamide] | 510 nM
CC(=O)Nc1ncc(CN2CCC(Cc3ccc(F)cn3)C2)s1 (stereo not shown) [Example 1-25, N-(5-((3-((5-fluoropyridin-2-yl)methyl)pyrrolidin-1-yl)methyl)thiazol-2-yl)acetamide] | 220 nM
COc1nccc(CC2CCCN(Cc3cnc(NC(C)=O)s3)C2)c1C (stereo not shown) [Example 2-3, N-(5-((3-((2-methoxy-3-methylpyridin-4-yl)methyl)piperidin-1-yl)methyl)thiazol-2-yl)acetamide] | 2 nM
CC(=O)Nc1ncc([C@@H](C)N2CCC[C@H](Cc3ncc(F)cn3)C2)s1 (single isomer, unassigned) [Example 2-10] | 29 nM
CC(=O)Nc1ncc(CN2CCC[C@H](Cc3ncccn3)C2)s1 [Example 3-7, (R)-N-(5-((3-(pyrimidin-2-ylmethyl)piperidin-1-yl)methyl)thiazol-2-yl)acetamide] | 2 nM
CC(=O)Nc1ncc(CN2CCCC(Cn3ccnn3)C2)s1 (stereo not shown) [Example 4-20, N-(5-((3-((1H-1,2,3-triazol-1-yl)methyl)piperidin-1-yl)methyl)thiazol-2-yl)acetamide] | 55 nM
CC(=O)Nc1ncc(CN2CCCC(Cc3noc(C)n3)C2)s1 (stereo not shown) [Example 4-19, N-(5-((3-((5-methyl-1,2,4-oxadiazol-3-yl)methyl)piperidin-1-yl)methyl)thiazol-2-yl)acetamide] | 9.3 nM
COc1ccc(CC2CCN(Cc3cnc(NC(C)=O)s3)C2)cn1 (stereo not shown) [Example 1-23, N-(5-((3-((6-methoxypyridin-3-yl)methyl)pyrrolidin-1-yl)methyl)thiazol-2-yl)acetamide] | 17 nM
CC(=O)Nc1ncc(CN2CCCC(Cn3nc(C)c(C)c3C)C2)s1 (stereo not shown) [Example 4-4, N-(5-((3-((3,4,5-trimethyl-1H-pyrazol-1-yl)methyl)piperidin-1-yl)methyl)thiazol-2-yl)acetamide] | 680 nM
COc1cc(C[C@H]2CCN(Cc3sc(NC(C)=O)nc3F)C2)ccn1 [Example 3-32, (S)—N-(4-fluoro-5-((3-((2-methoxypyridin-4-yl)methyl)pyrrolidin-1-yl)methyl)thiazol-2-yl)acetamide] | 8.9 nM
